Each compound was assayed on M-NFS-60 cells (assay: M-NFS-60 cell in vitro assay (CCK, 48 h, M-CSF factor medium)). Details: M-NFS-60 cells; read-out: M-NFS-60cellassay IC50.
Format: cell-based
Method: To determine the inhibitory activity of compounds on M-NFS-60 cells.
• M-NFS-60 cell line (ATCC, Cat. No.: CRL-1838) • RPMI-1640 medium (Gibco, domestic subpackage, Cat. No.: C11875500BT) • Recombinant Mouse CSF1/M-CSF (Sino Biological Inc., Cat. No.: 51112-MNAH) • PAN/Serum (BioTECH, Cat. No.: P30-2602) • Trypsin/0.05% Trypsin-EDTA (Gibco, Cat. No.: 25300-062) • 0.4% Trypan Blue (Sigma, Cat. No.: T8154-20 ml) • Penicillin-Streptomycin (Hyclone, Cat. No.: SV30010) • DMSO (Solarbio, Cat. No.: D8371) • PBS (Solarbio, Cat. No.: P1020) • CCK (AbMole BioScience, Cat. No.: M4839-500Tests)
• 1) M-CSF factor stock solution: take 10 μg of powdered m-CSF factor, add 0.4 ml of saline, formulate 25 ug/ml and store at −80° C. • 2) M-CSF factor (25 ng/ml) medium: • 1640 (Gibco)+10% PAN+100×Penicillin-Streptomycin+100×M-CSF stock solution • 3) Complete medium: • 1640 (Gibco)+10% PAN+100×Penicillin-Streptomycin • 4) Compound preparation: 2-3 mg of the compound was added to DMSO to formulate a 30 mM stock solution, −80° C. refrigerator storage
• 1) Cell resuscitation: the frozen cells in the cryovial were thawed rapidly by shaking in a 37° C. water bath, then 4 mL of medium was added. After mixing evenly, they were centrifuged at 125×g for 5 min, and the supernatant was discarded. The cells were resuspended and transferred to the culture flasks, and were cultured in a 5% CO2 fully saturated humidity incubator. • 2) Cell passaging: M-NFS-60 cells are semi-suspension cells, which were collected directly in a 15 mL centrifuge tube, centrifuged at 125×g for 5 min. and the supernatant was discarded. The cells were resuspended and passaged into new culture flasks at a ratio of 1:5 to 1:10. • 3) After the newly resuscitated cells were passaged 1-2 times for cell stabilization, compound inhibition assays were started when the cells were in the logarithmic growth phase. • (a) Cell collection and counting: the same as the cell passaging step, centrifuge in two tubes, one tube with M-CSF factor medium to resuspend the cells, the other tube with complete medium to resuspend the cells. Take 10 μL of cell suspension in each tube, and count the cells by Tepan blue staining. • (b) Dilute the cell solution according to the concentration of inoculated cells respectively, the concentration of M-NFS-60 cells inoculated with factor was 5.56×10^4 cells/mL, and the concentration of inoculated without factor was 5×10^4 cells/mL. • (c) Seed plate: 384 well plate inoculated with M-NFS-60 cells, 36 uL/well, triplicate wells, the number of inoculated cells was equivalent to 2000 cells/well, set with blank control, factor free negative control, normal control, DMSO control and experimental wells. The cells were placed in a 5% CO2 fully saturated humidity incubator for 4 h. • (d) Sampling compounds: 96 well plates were used for compound preparation. The compound solution prepared in advance was diluted to corresponding gradient concentration with DMSO. An appropriate amount of the diluted solution in the previous step was added to an equal volume of factor containing medium. The 96 well plates were centrifuged at 1000 rpm for 5 min, which played the role of defoaming and spinning down droplets and condensation. Remove the 384 well plate from the incubator, add the diluted compound solution into each well sequentially, 4 μL/well; DMSO wells and normal wells were added with corresponding factor containing medium, 4 μL/well. Then it was put into CO2 incubator for 48 h. • (e) After incubation for 48 h, CCK was added to each well, 4 uL, and the plates were placed in the incubator for another 2 h, and then the OD (optical density) value at 450 nm was measured by microplate reader.
The IC50 values for each test compound were fitted using professional graphing and analysis software.

Compound	IC50 [µM]
Cn1cc(-c2cncc(N[C@H]3CCc4c(C(=O)Nc5cccc(CN6CCCCC6)c5)cccc43)c2)cn1 [Compound 14at]	0.05 to 0.2
CN(C)Cc1ccc(NC(=O)c2cccc3c2CC[C@@H]3Nc2cncc(-c3cnn(C)c3)c2)cc1 [Compound 14au]	0.05 to 0.2
Cn1cc(-c2cncc(N[C@H]3CCc4c(C(=O)Nc5cccc(CN6CCCC6)c5)cccc43)c2)cn1 [Compound 14av]	0.05 to 0.2
Cn1cc(-c2cncc(N[C@H]3CCc4c(C(=O)Nc5cccc(C6CC6)c5)cccc43)c2)cn1 [Compound 14aw]	< 0.05
Cn1cc(-c2cncc(N[C@H]3CCc4c(C(=O)Nc5cccc(C(F)(F)F)c5)cccc43)c2)cn1 [Compound 14ax]	< 0.05
CN1CCc2cc(NC(=O)c3cccc4c3CC[C@@H]4Nc3cncc(-c4cnn(C)c4)c3)ccc2C1 [Compound 14ay]	0.05 to 0.2
CN(C)Cc1cccc(NC(=O)c2cccc3c2CC[C@@H]3Nc2cncc(-c3cnn(C)c3)c2)c1 [Compound 14az]	0.05 to 0.2
Cc1cccc(C(=O)Nc2cccc3c2CC[C@H]3Oc2cncc(-c3cnn(C)c3)c2)c1 [Compound 16, (R)-3-methyl-N-(1-((5-(1-methyl-1H-pyrazol-4-yl)pyridin-3-yl)oxy)-2,3-dihydro-1H-inden-4-yl)benzamide]	> 0.5
Cn1cc(-c2cncc(O[C@H]3CCc4c(C(=O)Nc5ccc(C(F)(F)F)cc5)cccc43)c2)cn1 [Compound 17, (S)-1-((5-(1-methyl-1H-pyrazol-4-yl)pyridin-3-yl)oxy)-N-(4-(trifluoromethyl)phenyl)-2,3-dihydro-1H-indene-4-carboxamide]	< 0.05
CN1CCc2ccc(NC(=O)c3cccc4c3CC[C@@H]4Oc3cncc(-c4cnn(C)c4)c3)cc2C1 [Compound 18, (S)—N-(2-methyl-1,2,3,4-tetrahydroisoquinolin-7-yl)-1-((5-(1-methyl-1H-pyrazol-4-yl)pyridin-3-yl)oxy)-2,3-dihydro-1H-indene-4-carboxamide]	0.05 to 0.2
CN(C)Cc1ccc(NC(=O)c2cccc3c2CC[C@@H]3Oc2cncc(-c3cnn(C)c3)c2)cc1 [Compound 19c]	0.05 to 0.2
CN(C)Cc1cccc(NC(=O)c2cccc3c2CC[C@@H]3Oc2cncc(-c3cnn(C)c3)c2)c1 [Compound 19e]	0.05 to 0.2
CN1CCc2c(cccc2NC(=O)c2cccc3c2CC[C@@H]3Oc2cncc(-c3cnn(C)c3)c2)C1 [Compound 19g]	> 0.5
CN1CCc2cc(NC(=O)c3cccc4c3CC[C@@H]4Oc3cncc(-c4cnn(C)c4)c3)ccc2C1 [Compound 19i]	0.05 to 0.2
CNCc1cccc(NC(=O)c2cccc3c2CC[C@@H]3Oc2cncc(-c3cnn(C)c3)c2)c1 [Compound 19l]	> 0.5
Cn1cc(-c2cncc(O[C@H]3CCc4c(C(=O)Nc5cccc(C(C)(C)N)c5)cccc43)c2)cn1 [Compound 19m]	0.2 to 0.5
Cn1cc(-c2cncc(O[C@H]3CCc4c(C(=O)Nc5ccc6c(c5)OCCO6)cccc43)c2)cn1 [Compound 19n]	< 0.05
CN1CC(c2cccc(NC(=O)c3cccc4c3CC[C@@H]4Oc3cncc(-c4cnn(C)c4)c3)c2)C1 [Compound 19o]	0.05 to 0.2
Cc1cc(NC(=O)c2cccc3c2CC[C@@H]3Oc2cncc(-c3cnn(C)c3)c2)ccn1 [Compound 19p]	< 0.05
CN(C)Cc1cc(NC(=O)c2cccc3c2CC[C@@H]3Oc2cncc(-c3cnn(C)c3)c2)ccc1C(F)(F)F [Compound 19q]	< 0.05
CN(C)CCOc1cccc(NC(=O)c2cccc3c2CC[C@@H]3Oc2cncc(-c3cnn(C)c3)c2)c1 [Compound 19r]	0.05 to 0.2
Cn1cc(-c2cncc(O[C@H]3CCc4c(C(=O)Nc5cccc(CN6CCC6)c5)cccc43)c2)cn1 [Compound 19s]	0.2 to 0.5

Compound	IC50 [µM]
Cn1cc(-c2cncc(O[C@H]3CCc4c(C(=O)Nc5cncc(F)c5)cccc43)c2)cn1 [Compound 19t]	0.05 to 0.2
Cn1cc(-c2cncc(O[C@H]3CCc4c(C(=O)Nc5ccc6c(c5)CNC6)cccc43)c2)cn1 [Compound 19u]	> 0.5
CN1Cc2ccc(NC(=O)c3cccc4c3CC[C@@H]4Oc3cncc(-c4cnn(C)c4)c3)cc2C1 [Compound 19v]	0.2 to 0.5
Cc1ncc(-c2cnn(C)c2)cc1O[C@H]1CCc2c(C(=O)Nc3ccc(C(F)(F)F)cc3)cccc21 [Compound 19w]	0.2 to 0.5
CN(c1cncc(-c2cnn(C)c2)c1)[C@H]1CCc2c(C(=O)Nc3ccc(C(F)(F)F)cc3)cccc21 [Compound 20, (S)-1-(methyl (5-(1-methyl-1H-pyrazol-4-yl)pyridin-3-yl)amino)-N-(4-(trifluoromethyl)phenyl)-2,3-dihydro-1H-indene-4-carboxamide]	< 0.05
CN(c1cncc(-c2cnn(C)c2)c1)[C@H]1CCc2c(C(=O)Nc3cccc(C(F)(F)F)c3)cccc21 [Compound 22b]	< 0.05
CN1CCc2ccc(NC(=O)c3cccc4c3CC[C@@H]4N(C)c3cncc(-c4cnn(C)c4)c3)cc2C1 [Compound 22c]	0.05 to 0.2
CN(C)Cc1cccc(NC(=O)c2cccc3c2CC[C@@H]3N(C)c2cncc(-c3cnn(C)c3)c2)c1 [Compound 22d]	0.05 to 0.2
CN1CCc2cc(NC(=O)c3cccc4c3CC[C@@H]4N(C)c3cncc(-c4cnn(C)c4)c3)ccc2C1 [Compound 22e]	0.2 to 0.5
CN(C)Cc1ccc(NC(=O)c2cccc3c2CC[C@@H]3N(C)c2cncc(-c3cnn(C)c3)c2)cc1 [Compound 22f]	> 0.5
CN(c1cncc(-c2cnn(C)c2)c1)[C@H]1CCc2c(C(=O)Nc3nn(C)c4ccccc34)cccc21 [Compound 22g]	< 0.05
CN(c1cncc(-c2cnn(C)c2)c1)[C@H]1CCc2c(NC(=O)c3ccc(C(F)(F)F)cc3)cccc21 [Compound 23, (S)—N-(1-(methyl (5-(1-methyl-1H-pyrazol-4-yl)pyridin-3-yl)amino)-2,3-dihydro-1H-inden-4-yl)-4-(trifluoromethyl)benzamide]	> 0.5
Cn1cc(-c2cncc(N[C@H]3CCc4c(NC(=O)c5ccc6c(c5)OC(F)(F)O6)cccc43)n2)cn1 [Compound 24, (S)-2,2-difluoro-N-(1-((6-(1-methyl-1H-pyrazol-4-yl)pyrazin-2-yl)amino)-2,3-dihydro-1H-inden-4-yl)benzo[d][1,3]dioxole-5-carboxamide]	< 0.05
Cc1cccc(C(=O)Nc2cccc3c2CC[C@@H]3Nc2cncc(-c3cnn(C)c3)n2)c1 [Compound 25a]	< 0.05
Cc1cccc(C(=O)Nc2cccc3c2CC[C@H]3Nc2cncc(-c3cnn(C)c3)n2)c1 [Compound 25b]	> 0.5
Cn1cc(-c2cncc(N[C@H]3CCc4c(NC(=O)c5cccc(C(F)(F)F)c5F)cccc43)n2)cn1 [Compound 25c]	< 0.05
Cn1cc(-c2cncc(N[C@@H]3CCc4c(NC(=O)c5cccc(C(F)(F)F)c5F)cccc43)n2)cn1 [Compound 25d]	> 0.5
CN1CCN(c2cccc(C(=O)Nc3cccc4c3CC[C@@H]4Nc3cncc(-c4cnn(C)c4)n3)c2)CC1 [Compound 25e]	0.05 to 0.2
CN1CCN(Cc2ccc(C(=O)Nc3cccc4c3CC[C@@H]4Nc3cncc(-c4cnn(C)c4)n3)cc2)CC1 [Compound 25f]	0.05 to 0.2
Cc1cccc(NC(=O)c2cccc3c2CC[C@@H]3Nc2cncc(-c3cnn(C)c3)n2)c1 [Compound 26, (S)-1-((6-(1-methyl-1H-pyrazol-4-yl)pyrazin-2-yl)amino)-N-(m-tolyl)-2,3-dihydro-1H-indene-4-carboxamide]	< 0.05
Cn1cc(-c2cncc(N[C@H]3CCc4c(C(=O)Nc5cccc(C6CC6)c5)cccc43)n2)cn1 [Compound 27a]	< 0.05
Cn1cc(-c2cncc(N[C@H]3CCc4c(C(=O)N5CCCCC5)cccc43)n2)cn1 [Compound 27b]	> 0.5

Source: patent US20260125359A1, “HETEROARYL COMPOUNDS AS MULTI-TARGET PROTEIN KINASE INHIBITORS” (FUJIAN HAIXI PHARMACEUTICALS CO., LTD., priority 2023, published 2026)
